Laboratory results published in patent US9006174B2 (priority 2009, dated 2015).
Ends that are not written are not given here.

Legend:
[1] = test system: hRBCs; conditions: human erythrocytes, 1 h at 37° C.
[2] = test system: cRBCs; assay: Haemolytic activity, chicken erythrocytes; type: cell-based; conditions: 1 h at 37° C.

FGRFLRKIRRFRPK [CMAP(2-15), FGRFLRKIRRFRPK]
Toxicity Haemolysis (hRBCs) [1]: −− (<5% dead cells)

FLRKIRRFRPK [CMAP(5-15), FLRKIRRFRPK]
Toxicity Haemolysis (hRBCs) [1]: − (<25% dead cells)

GRFLRKIRRFRPK [CMAP(3-15), GRFLRKIRRFRPK]
Toxicity Haemolysis (hRBCs) [1]: −− (<5% dead cells)

RFGRFLRKIR [CMAP(l-l0), RFGRFLRKIR]
Toxicity Haemolysis (hRBCs) [1]: −− (<5% dead cells)

RFGRFLRKIRR [CMAP(l-ll), RFGRFLRKIRR]
Toxicity Haemolysis (hRBCs) [1]: +/− (>25% dead cells)

RFGRFLRKIRRF [CMAP(1-12), RFGRFLRKIRRF]
Toxicity Haemolysis (hRBCs) [1]: −− (<5% dead cells)

RFGRFLRKIRRFR [CMAP(1-13), RFGRFLRKIRRFR]
Toxicity Haemolysis (hRBCs) [1]: −− (<5% dead cells)

RFGRFLRKIRRFRPK [CMAP(1-15), RFGRFLRKIRRFRPK]
Toxicity Haemolysis (hRBCs) [1]: −− (<5% dead cells) | Toxicity Haemolysis (cRBCs) [2]: − (<25% dead cells)

RFGRFLRKIRRFRPKVTITIQ [CMAP1-21]
Toxicity Haemolysis (cRBCs) [2]: − (<25% dead cells)

RFGRFLRKIRRFRPKVTITIQGSARF [CMAP26]
Toxicity Haemolysis (hRBCs) [1]: ++ (>75% dead cells)

RFGRFLRKIRRFRPKVTITIQGSARF-NH2 [CMAP26-NH2, reference compound]
Toxicity Haemolysis (cRBCs) [2]: +/− (>25% dead cells)

RFGRFLRKIRRFRPKVTITIQGSARFG [CMAP27, reference compound]
Toxicity Haemolysis (hRBCs) [1]: − (<25% dead cells)

RFGRLLRKIRRFRPK [CMAP(1-15) (F5→L), RFGRLLRKIRRFRPK]
Toxicity Haemolysis (hRBCs) [1]: − (<25% dead cells)

RFGRWLRKIRRFRPK [CMAP(1-15) (F5→W), RFGRWLRKIRRFRPK]
Toxicity Haemolysis (hRBCs) [1]: −− (<5% dead cells)

RFLRKIRRFRPK [CMAP(4-15), RFLRKIRRFRPK]
Toxicity Haemolysis (hRBCs) [1]: +/− (>25% dead cells)

RLGRFLRKIRRFRPK [CMAP(1-15) (F2→L), RLGRFLRKIRRFRPK]
Toxicity Haemolysis (hRBCs) [1]: − (<25% dead cells)

RLGRLLRKIRRLRPK [CMAP(1-15) (3xF→L), RLGRLLRKIRRLRPK]
Toxicity Haemolysis (hRBCs) [1]: − (<25% dead cells)

RWGRFLRKIRRFRPK [CMAP(1-15) (F2→W), RWGRFLRKIRRFRPK]
Toxicity Haemolysis (hRBCs) [1]: −− (<5% dead cells)

RWGRWLRKIRRWRPK [CMAP(1-15) (3xF→W), RWGRWLRKIRRWRPK]
Toxicity Haemolysis (hRBCs) [1]: − (<25% dead cells)
